The first test relates to mouse's back.
Experiment: not given
The note with it: comparative experiments on mouse's back, relative to minoxidil; cited from earlier work.
In the case of cyclosporin, the “hair regrowth effect, times superior to minoxidil” value is “about 100 times”.

A further test relates to Female C57BL/6 mice. Description: Test for hair growth promoting effect (hair regrowth on shaved back of mice, topical application). Format: in vivo. The note with it: female C57BL/6 mice 6 to 7 weeks, hair-removed back, 100 µl (conc. 0.1% w/v) once a day for 30 days, visual approach; vehicle control 40. How it is done:
Test Example: Test for hair growth promoting effect of cyclosporin derivatives of the invention
Female C57BL/6 mice of ages 6 to 7 weeks were utilized. After removing hairs on the middle of the back with an electric shaver, the mice were weighed and randomly assigned to the test groups with an even distribution of weights. The mice were given one day for adaptation. […] The results were determined by visual approach, in terms of degrees of hair regrowth. With respect to respective hair-removed areas, rates of new hair growth were examined and compared.
As for `C/C=C/C[C@@H](C)[C@@H](O)[C@H]1C(=O)N[C@@H](CC)C(=O)N(C)[C@H](SCC)C(=O)N(C)[C@@H](CC(C)C)C(=O)N[C@@H](C(C)C)C(=O)N(C)[C@@H](CC(C)C)C(=O)N[C@@H](C)C(=O)N[C@H](C)C(=O)N(C)[C@@H](CC(C)C)C(=O)N(C)[C@@H](CC(C)C)C(=O)N(C)[C@@H](C(C)C)C(=O)N1C` [Compound 1, [D-2-ethylthio-sar^3]cyclosporin A], the “Area rate of hair regrowth (%)” value is on record as 90%.

As to `C/C=C/C[C@@H](C)[C@@H](O)[C@H]1C(=O)N[C@@H](CC)C(=O)N(C)[C@H](SCCC)C(=O)N(C)[C@@H](CC(C)C)C(=O)N[C@@H](C(C)C)C(=O)N(C)[C@@H](CC(C)C)C(=O)N[C@@H](C)C(=O)N[C@H](C)C(=O)N(C)[C@@H](CC(C)C)C(=O)N(C)[C@@H](CC(C)C)C(=O)N(C)[C@@H](C(C)C)C(=O)N1C` [Compound 2, [D-2-propylthio-sar^3] cyclosporin A], the “Area rate of hair regrowth (%)” value was 92%.

On to `C/C=C/C[C@@H](C)[C@@H](O)[C@H]1C(=O)N[C@@H](CC)C(=O)N(C)[C@H](SC(C)C)C(=O)N(C)[C@@H](CC(C)C)C(=O)N[C@@H](C(C)C)C(=O)N(C)[C@@H](CC(C)C)C(=O)N[C@@H](C)C(=O)N[C@H](C)C(=O)N(C)[C@@H](CC(C)C)C(=O)N(C)[C@@H](CC(C)C)C(=O)N(C)[C@@H](C(C)C)C(=O)N1C` [Compound 3, [D-2-isopropylthio-sarl^3] cyclosporin A], for which the “Area rate of hair regrowth (%)” value is 85%.

For the compound `C=CCS[C@@H]1C(=O)N(C)[C@@H](CC(C)C)C(=O)N[C@@H](C(C)C)C(=O)N(C)[C@@H](CC(C)C)C(=O)N[C@@H](C)C(=O)N[C@H](C)C(=O)N(C)[C@@H](CC(C)C)C(=O)N(C)[C@@H](CC(C)C)C(=O)N(C)[C@@H](C(C)C)C(=O)N(C)[C@@H]([C@H](O)[C@H](C)C/C=C/C)C(=O)N[C@@H](CC)C(=O)N1C` [Compound 4, [D-2-allylthio-sar^3] cyclosporin A], the “Area rate of hair regrowth (%)” value is given as 90%.

For `C/C=C/C[C@@H](C)[C@@H](O)[C@H]1C(=O)N[C@@H](CC)C(=O)N(C)[C@H](SCc2ccccc2)C(=O)N(C)[C@@H](CC(C)C)C(=O)N[C@@H](C(C)C)C(=O)N(C)[C@@H](CC(C)C)C(=O)N[C@@H](C)C(=O)N[C@H](C)C(=O)N(C)[C@@H](CC(C)C)C(=O)N(C)[C@@H](CC(C)C)C(=O)N(C)[C@@H](C(C)C)C(=O)N1C` [Compound 5, [D-2-benzylthio-sar^3] cyclosporin A], the “Area rate of hair regrowth (%)” value came to 90%.

Consider `C/C=C/C[C@@H](C)[C@@H](O)[C@H]1C(=O)N[C@@H](CC)C(=O)N(C)[C@H](Sc2ccc([N+](=O)[O-])cc2)C(=O)N(C)[C@@H](CC(C)C)C(=O)N[C@@H](C(C)C)C(=O)N(C)[C@@H](CC(C)C)C(=O)N[C@@H](C)C(=O)N[C@H](C)C(=O)N(C)[C@@H](CC(C)C)C(=O)N(C)[C@@H](CC(C)C)C(=O)N(C)[C@@H](C(C)C)C(=O)N1C` [Compound 6, [D-2-(4-nitrophenyl)thio-sar^3] cyclosporin A], for which the “Area rate of hair regrowth (%)” value is on record as 89%.

Turning to “[D-2-(dimethylthiocarbamyl)dithio-sar^3] cyclosporin A [Compound 7]”, the “Area rate of hair regrowth (%)” value is listed as 85%.

(Values after patent publication EP1560558B1, “USE OF 3-POSITION CYCLOSPORIN DERIVATIVES FOR HAIR GROWTH” (LG Household & Health Care Ltd., priority 2002, dated 2010).)
